According to paper PMC9692703 (2022):

What was measured:
[1] = system: Adenosine aptamer (Aptade), 4 bp (DNA, aptamer) ACCTGGGGGAGTATTGCGGAGGAAGGT; test: ThT fluorescence enhancement; details: 100 mM NaCl, 10 mM MgCl2; 10 mM PB pH 7; 100 nM aptamer
[2] = system: A30/T30 duplex (DNA, duplex) AAAAAAAAAAAAAAAAAAAAAAAAAAAAAA/TTTTTTTTTTTTTTTTTTTTTTTTTTTTTT; test: SGI staining fluorescence; details: 100 mM NaCl; 10 mM PB pH 7; 100 nM DNA, 0.5x SGI

Cc1ccc2c(c1)sc(-c1ccc(N(C)C)cc1)[n+]2C
binding [1]: yes

CCCN(CCCN(C)C)c1cc(C=C2Sc3ccccc3N2C)c2ccccc2[n+]1-c1ccccc1
binding [2]: yes
